These results are taken from ChEMBL document CHEMBL5096194, “Development of Alectinib-Based PROTACs as Novel Potent Degraders of Anaplastic Lymphoma Kinase (ALK)” (J Med Chem, 2021).

In one data set the test system is NCI-H3122. The data set can be described thus: Antiproliferative activity against ALK-positive human NCI-H3122 cells assessed as inhibition of cell proliferation measured after 72 hrs by MTT assay. It counts as functional, cell-based. Particulars: NCI-H3122, 72 h.
The target of data set [1] is Protein cereblon/ALK tyrosine kinase receptor/Nucleophosmin (Homo sapiens) (UniProt Q9UM73+P06748+Q96SW2). Nature of the data set: Protac activity at CRBN/NPM-ALK in human KARPAS-299 cells assessed as induction of NPM-ALK fusion protein degradation at 1 uM incubated for 24 hrs by Western blot analysis relative to control. Type of data set: cell-based.
The target of data set [2] is ALK tyrosine kinase receptor (Homo sapiens, UniProt Q9UM73). The data set can be described thus: Inhibition of ALK phosphorylation in human KARPAS-299 cells at 100 nM measured after 48 hrs by Western blot analysis. Type of data set: cell-based.
The target of data set [3] is Signal transducer and activator of transcription 3 (Homo sapiens) (UniProt P40763). Nature of the data set: Inhibition of STAT3 phosphorylation in human KARPAS-299 cells as 100 nM measured after 24 hrs by Western blot analysis relative to control. It counts as cell-based.
Data set [4] can be described thus: Tmax in Sprague-Dawley rat at 1 mg/kg, iv administered as single dose measured for 24 hrs by LC-MS/MS analysis. It counts as ADME, organism-based. Particulars: in vivo.
A short description of data set [5]: Tmax in Sprague-Dawley rat at 50 mg/kg, ip administered as single dose measured for 24 hrs by LC-MS/MS analysis. The following applies: in vivo. Type of data set: ADME, organism-based.
Data set [6] can be described thus: Cmax in Sprague-Dawley rat at 1 mg/kg, iv administered as single dose measured for 24 hrs by LC-MS/MS analysis. Set-up: time 24 hrs, dose 1 mg/kg, route iv. Type of data set: ADME, organism-based. The following applies: in vivo.
A short description of data set [7]: Cmax in Sprague-Dawley rat at 50 mg/kg, ip administered as single dose measured for 24 hrs by LC-MS/MS analysis. Type of data set: ADME, organism-based. The arrangement: dose 50 mg/kg, time 24 hrs, route ip. The following applies: in vivo.
Data set [8] is described as follows: AUC (0 to t) in Sprague-Dawley rat at 1 mg/kg, iv administered as single dose measured for 24 hrs by LC-MS/MS analysis. The following applies: in vivo. Set-up: time 24 hrs, dose 1 mg/kg, route iv. It counts as ADME, organism-based.
Data set [9] is described as follows: AUC (0 to t) in Sprague-Dawley rat at 50 mg/kg, ip administered as single dose measured for 24 hrs by LC-MS/MS analysis. It counts as ADME, organism-based. Set-up: dose 50 mg/kg, time 24 hrs, route ip. Particulars: in vivo.
Data set [10] is described as follows: Volume of distribution in Sprague-Dawley rat at 1 mg/kg, iv administered as single dose measured for 24 hrs by LC-MS/MS analysis. Type of data set: ADME, organism-based. Particulars: in vivo.
Data set [11] in a line: In vivo induction of degradation of ALK in human KARPAS-299 cells xenografted in NCG mouse assessed as reduction in ALK protein expression in tumor at 10 mg/kg, iv administered as single dose measured after 12 hrs by immunoblot analysis relative to control. Type of data set: functional. The arrangement: scale not given: the % may be the effect or the level left.
Data set [12] can be described thus: In vivo induction of degradation of ALK in human KARPAS-299 cells xenografted in NCG mouse assessed as ALK protein expression in tumor at 10 mg/kg, iv administered as single dose measured after 24 hrs by immunoblot analysis relative to control. Type of data set: functional. A general note: In xenograft studies the graft and the host belong to different species.

Data set [13] concerns KARPAS-299. Nature of the data set: Antitumor activity against human KARPAS-299 cells xenografted in NCG mouse assessed as reduction in tumor volume at 5 to 10 mg/kg, iv administered once every day for 3 weeks and measured every 3 days. It counts as functional, organism-based. The following applies: dose 5-10 mg/kg.
The test system of data set [14] is KARPAS-299. The data set can be described thus: Antitumor activity against human KARPAS-299 cells xenografted in NCG mouse assessed as reduction in tumor weight at 5 to 10 mg/kg, iv administered once every day for 3 weeks and measured every 3 days. It counts as functional, organism-based. The following applies: dose 5-10 mg/kg.
Data set [15] deals with KARPAS-299. The data set can be described thus: Antitumor activity against human KARPAS-299 cells xenografted in NCG mouse assessed as reduction in tumor weight at 25 to 50 mg/kg, ip administered once every day for 3 weeks and measured every 3 days. It counts as functional, organism-based. Particulars: dose 25-50 mg/kg.
In data set [16] the test system is KARPAS-299. Nature of the data set: Antitumor activity against human KARPAS-299 cells xenografted in NCG mouse assessed as tumor growth inhibition at 10 mg/kg, iv administered once every day for 3 weeks and measured every 3 days relative to control. Type of data set: functional. Particulars: KARPAS-299, 504 h, read-out: TGI.
Data set [17] in a line: Toxicity in NCG mouse xenografted with human KARPAS-299 cells assessed as body weight loss at 10 mg/kg, iv administered once every day for 3 weeks. It counts as organism-based. The following applies: in vivo, 504 h.
Data set [18] can be described thus: Toxicity in NCG mouse xenografted with human KARPAS-299 cells assessed as spleen damage at 10 mg/kg, iv administered once every day for 3 weeks by H and E staining based analysis. It counts as organism-based. Particulars: in vivo, 504 h.
Data set [19] relates to KARPAS-299. The data set can be described thus: Antitumor activity against human KARPAS-299 cells xenografted in NCG mouse assessed as increase in ALK protein degradation at 5 to 10 mg/kg, iv administered once every day for 3 weeks. The following applies: dose 5-10 mg/kg. Type of data set: functional, organism-based.
Data set [20] relates to BaF3. Nature of the data set: Antiproliferative activity against mouse BaF3 cells assessed as cell viability at 1 uM incubated for 72 hrs by Celltitre-Glo assay relative to control. It counts as functional. Particulars: read-out: Activity.
Data set [21] has as its system BaF3. The data set can be described thus: Antiproliferative activity against crizotinib-resistant mouse BaF3 cells expressing EML-ALK G1202R mutant assessed as cell viability at 1 uM incubated for 72 hrs by Celltitre-Glo assay relative to control. It counts as functional. Particulars: read-out: Activity.
The target in data set [22] is NPM/ALK (Nucleophosmin/ALK tyrosine kinase receptor) (Homo sapiens) (UniProt Q9UM73+P06748). Nature of the data set: Induction of NPM-ALK degradation in human KARPAS-299 cells assessed as reduction in NPM-ALK protein level at 1 uM measured after 24 hrs by Western blot analysis. It counts as cell-based. In general terms: In western blotting, separated proteins are transferred to a membrane and probed.

In data set [23] the target is Signal transducer and activator of transcription 3 (Homo sapiens) (UniProt P40763). Nature of the data set: Inhibition of STAT3 phosphorylation in human KARPAS-299 cells as 0.01 to 1 uM measured after 24 hrs by Western blot analysis. It counts as cell-based. Particulars: dose 0.01-1 µM.

By IC50 is commonly meant the concentration that inhibits the measured activity by half. Usually inhibition stands for the share of the control response that was lost under treatment. The Tmax is the time from dosing to the highest level. As a reminder, the Cmax is the peak of the concentration-time curve. As usually defined, the AUC(0-t) is exposure summed from dosing to a finite time, without extrapolation to infinity. By Vd is commonly meant a proportionality between amount in the body and measured concentration, not a real space.

Structures are written as SMILES. Calls of active or inactive are those of the source. The calls are words filed in the database; no cut-off is given here. Some results are limits rather than exact numbers.

Chain of Signal transducer and activator of transcription 3 (Homo sapiens) (P40763 whole entry): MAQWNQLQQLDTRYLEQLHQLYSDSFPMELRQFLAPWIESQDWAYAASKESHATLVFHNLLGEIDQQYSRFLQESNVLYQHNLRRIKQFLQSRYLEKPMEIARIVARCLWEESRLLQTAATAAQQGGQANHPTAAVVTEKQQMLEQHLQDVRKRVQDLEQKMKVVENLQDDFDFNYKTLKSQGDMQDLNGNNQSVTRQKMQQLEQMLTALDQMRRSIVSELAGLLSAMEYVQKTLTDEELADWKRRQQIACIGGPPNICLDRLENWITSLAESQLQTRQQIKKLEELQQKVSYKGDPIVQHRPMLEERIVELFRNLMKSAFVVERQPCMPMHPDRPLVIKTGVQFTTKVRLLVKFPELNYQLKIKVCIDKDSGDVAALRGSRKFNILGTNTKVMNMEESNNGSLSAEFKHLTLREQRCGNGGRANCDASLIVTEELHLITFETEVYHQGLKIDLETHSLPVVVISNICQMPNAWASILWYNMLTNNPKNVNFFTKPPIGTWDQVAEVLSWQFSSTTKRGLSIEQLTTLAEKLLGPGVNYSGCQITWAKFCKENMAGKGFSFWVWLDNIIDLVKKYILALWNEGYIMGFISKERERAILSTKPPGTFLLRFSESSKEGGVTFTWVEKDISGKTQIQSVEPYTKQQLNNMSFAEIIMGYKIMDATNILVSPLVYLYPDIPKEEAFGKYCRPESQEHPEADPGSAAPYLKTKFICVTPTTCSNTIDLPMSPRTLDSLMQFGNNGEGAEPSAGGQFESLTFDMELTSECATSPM
Chain of Protein cereblon/ALK tyrosine kinase receptor/Nucleophosmin (Homo sapiens) (P06748 whole entry partner, the tested form may be a part): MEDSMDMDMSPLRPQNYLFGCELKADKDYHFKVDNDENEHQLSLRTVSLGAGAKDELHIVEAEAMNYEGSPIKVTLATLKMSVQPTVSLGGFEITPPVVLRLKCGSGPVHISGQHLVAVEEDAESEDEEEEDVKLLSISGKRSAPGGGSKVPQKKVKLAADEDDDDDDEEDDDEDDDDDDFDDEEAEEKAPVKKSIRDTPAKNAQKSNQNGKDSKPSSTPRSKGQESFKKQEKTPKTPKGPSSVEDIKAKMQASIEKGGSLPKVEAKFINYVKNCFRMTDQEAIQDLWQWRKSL
Chain of Protein cereblon/ALK tyrosine kinase receptor/Nucleophosmin (Homo sapiens) (Q96SW2 whole entry partner, the tested form may be a part): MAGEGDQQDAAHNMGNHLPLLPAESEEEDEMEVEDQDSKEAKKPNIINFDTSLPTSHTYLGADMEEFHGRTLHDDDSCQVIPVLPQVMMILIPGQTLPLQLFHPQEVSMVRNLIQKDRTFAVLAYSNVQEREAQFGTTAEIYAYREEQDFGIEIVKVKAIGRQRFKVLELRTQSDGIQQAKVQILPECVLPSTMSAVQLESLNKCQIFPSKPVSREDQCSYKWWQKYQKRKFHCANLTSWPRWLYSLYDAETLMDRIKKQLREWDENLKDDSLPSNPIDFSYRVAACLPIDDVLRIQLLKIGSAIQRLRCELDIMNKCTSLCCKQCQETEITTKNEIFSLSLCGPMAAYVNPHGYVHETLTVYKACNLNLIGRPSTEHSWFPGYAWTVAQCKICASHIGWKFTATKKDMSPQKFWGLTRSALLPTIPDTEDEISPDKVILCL
Chain of Protein cereblon/ALK tyrosine kinase receptor/Nucleophosmin (Homo sapiens) (Q9UM73 19-1620 limits assumed): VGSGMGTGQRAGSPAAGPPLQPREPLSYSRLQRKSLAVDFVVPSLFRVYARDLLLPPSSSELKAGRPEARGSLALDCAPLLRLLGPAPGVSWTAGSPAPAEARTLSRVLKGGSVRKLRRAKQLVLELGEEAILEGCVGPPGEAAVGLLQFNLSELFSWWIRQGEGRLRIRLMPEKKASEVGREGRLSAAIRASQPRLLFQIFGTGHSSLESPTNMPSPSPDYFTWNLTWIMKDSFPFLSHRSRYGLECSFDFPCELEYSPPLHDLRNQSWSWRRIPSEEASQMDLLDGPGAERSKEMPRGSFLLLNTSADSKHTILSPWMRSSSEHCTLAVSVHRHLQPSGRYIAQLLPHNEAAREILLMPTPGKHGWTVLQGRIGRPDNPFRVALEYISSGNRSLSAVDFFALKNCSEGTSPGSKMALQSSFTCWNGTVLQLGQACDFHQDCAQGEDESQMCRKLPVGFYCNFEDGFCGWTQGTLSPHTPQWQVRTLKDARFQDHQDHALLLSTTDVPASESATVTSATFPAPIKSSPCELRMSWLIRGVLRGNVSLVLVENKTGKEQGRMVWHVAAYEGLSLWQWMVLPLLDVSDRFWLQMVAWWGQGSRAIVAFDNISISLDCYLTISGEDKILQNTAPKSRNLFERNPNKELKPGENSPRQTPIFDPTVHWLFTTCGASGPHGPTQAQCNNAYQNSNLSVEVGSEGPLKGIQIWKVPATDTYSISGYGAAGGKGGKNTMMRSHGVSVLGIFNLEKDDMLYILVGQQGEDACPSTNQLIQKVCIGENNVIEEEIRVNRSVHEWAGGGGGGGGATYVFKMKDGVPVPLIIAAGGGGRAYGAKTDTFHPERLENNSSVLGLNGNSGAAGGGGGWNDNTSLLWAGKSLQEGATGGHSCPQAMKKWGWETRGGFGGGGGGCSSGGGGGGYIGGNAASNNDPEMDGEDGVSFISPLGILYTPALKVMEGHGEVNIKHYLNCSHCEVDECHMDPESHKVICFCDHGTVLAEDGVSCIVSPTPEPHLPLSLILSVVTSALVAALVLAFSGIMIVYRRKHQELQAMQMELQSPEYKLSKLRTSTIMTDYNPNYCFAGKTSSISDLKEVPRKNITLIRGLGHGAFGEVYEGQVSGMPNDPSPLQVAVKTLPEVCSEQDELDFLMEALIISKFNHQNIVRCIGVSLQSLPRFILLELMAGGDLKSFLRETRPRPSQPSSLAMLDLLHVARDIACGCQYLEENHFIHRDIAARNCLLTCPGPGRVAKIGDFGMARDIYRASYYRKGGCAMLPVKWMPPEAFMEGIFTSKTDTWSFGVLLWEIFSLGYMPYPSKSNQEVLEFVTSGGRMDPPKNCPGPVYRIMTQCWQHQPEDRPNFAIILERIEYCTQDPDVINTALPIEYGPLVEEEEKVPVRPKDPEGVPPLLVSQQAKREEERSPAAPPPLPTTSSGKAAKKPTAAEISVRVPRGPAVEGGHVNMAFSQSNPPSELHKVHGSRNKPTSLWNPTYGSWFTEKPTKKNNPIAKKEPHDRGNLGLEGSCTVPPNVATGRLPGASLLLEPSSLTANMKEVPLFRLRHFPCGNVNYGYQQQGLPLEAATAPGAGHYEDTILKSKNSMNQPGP
Chain of NPM/ALK (Nucleophosmin/ALK tyrosine kinase receptor) (Homo sapiens) (P06748 whole entry partner): as the sequence (P06748 whole entry partner, the tested form may be a part) above
Chain of NPM/ALK (Nucleophosmin/ALK tyrosine kinase receptor) (Homo sapiens) (Q9UM73 19-1620 limits assumed): as the sequence (Q9UM73 19-1620 limits assumed) above
Chain of ALK tyrosine kinase receptor (Q9UM73 19-1620 limits assumed): as above

As for `CCc1cc2c(cc1N1CCN(C(=O)CNc3cccc4c3C(=O)N(C3CCC(=O)NC3=O)C4=O)CC1)C(C)(C)c1[nH]c3cc(C#N)ccc3c1C2=O` (centres undefined), in the data set on NCI-H3122, the IC50 is 62 nM. The Activity in data set [1] was 85%; in [11] it was over 85%; in data set [12], 18.7%; in data set [17], “Non-Toxic”; in data set [18], “Non-Toxic”. Also, the inhibition result in data set [2] and in data set [23] was “Active” each time. In data set [3], this molecule came in with an inhibition of over 85%. The Tmax worked out at 1.8 min in data set [4] and 15 min in data set [5]. The peak concentration (Cmax) in [6] was found to be 994 ng/mL; in data set [7], 109 ng/mL. Moreover, the results for the AUC(0-t) at 24 h in data set [8] and in data set [9] were 146 ng·h/mL and 546 ng·h/mL, respectively. In data set [10], the Vd turned out to be 3.89 L/kg. Also, the result (in the data set on KARPAS-299 [13]; in the data set with KARPAS-299 [14]; in the data set with KARPAS-299 [15]; in the data set on KARPAS-299 [19]; in [22]) was Active. Moreover, the inhibition in vivo at 10 mg/kg in the data set on KARPAS-299 [16] came to 75.8%. Besides, the viability at 1 µM was determined as 116% in the data set with BaF3 [20] and 77.6% in the data set with BaF3 [21].
